Paper PMC7391767, “Molecular mechanisms underlying menthol binding and activation of TRPM8 ion channel” (Nature Communications, 2020)
Several values for one entry are separate records, joined by “and”; a condition that tells them apart may be missing. Equal values may be shown once. Entries after “also recorded” stand apart in the source; their conditions may differ.

Key:
Format in all cases: cell-based
TRPM8 = target: T1, TRPM8 (Mus musculus, UniProt Q8R4D5); assay: whole-cell patch-clamp recording in response to a voltage ramp; conditions: beyond −200 mV; near saturating menthol (0.5 mM)
T1 construct: expressed in transfected cells; host or cells: HEK293T
T1 sequence (Q8R4D5 whole entry): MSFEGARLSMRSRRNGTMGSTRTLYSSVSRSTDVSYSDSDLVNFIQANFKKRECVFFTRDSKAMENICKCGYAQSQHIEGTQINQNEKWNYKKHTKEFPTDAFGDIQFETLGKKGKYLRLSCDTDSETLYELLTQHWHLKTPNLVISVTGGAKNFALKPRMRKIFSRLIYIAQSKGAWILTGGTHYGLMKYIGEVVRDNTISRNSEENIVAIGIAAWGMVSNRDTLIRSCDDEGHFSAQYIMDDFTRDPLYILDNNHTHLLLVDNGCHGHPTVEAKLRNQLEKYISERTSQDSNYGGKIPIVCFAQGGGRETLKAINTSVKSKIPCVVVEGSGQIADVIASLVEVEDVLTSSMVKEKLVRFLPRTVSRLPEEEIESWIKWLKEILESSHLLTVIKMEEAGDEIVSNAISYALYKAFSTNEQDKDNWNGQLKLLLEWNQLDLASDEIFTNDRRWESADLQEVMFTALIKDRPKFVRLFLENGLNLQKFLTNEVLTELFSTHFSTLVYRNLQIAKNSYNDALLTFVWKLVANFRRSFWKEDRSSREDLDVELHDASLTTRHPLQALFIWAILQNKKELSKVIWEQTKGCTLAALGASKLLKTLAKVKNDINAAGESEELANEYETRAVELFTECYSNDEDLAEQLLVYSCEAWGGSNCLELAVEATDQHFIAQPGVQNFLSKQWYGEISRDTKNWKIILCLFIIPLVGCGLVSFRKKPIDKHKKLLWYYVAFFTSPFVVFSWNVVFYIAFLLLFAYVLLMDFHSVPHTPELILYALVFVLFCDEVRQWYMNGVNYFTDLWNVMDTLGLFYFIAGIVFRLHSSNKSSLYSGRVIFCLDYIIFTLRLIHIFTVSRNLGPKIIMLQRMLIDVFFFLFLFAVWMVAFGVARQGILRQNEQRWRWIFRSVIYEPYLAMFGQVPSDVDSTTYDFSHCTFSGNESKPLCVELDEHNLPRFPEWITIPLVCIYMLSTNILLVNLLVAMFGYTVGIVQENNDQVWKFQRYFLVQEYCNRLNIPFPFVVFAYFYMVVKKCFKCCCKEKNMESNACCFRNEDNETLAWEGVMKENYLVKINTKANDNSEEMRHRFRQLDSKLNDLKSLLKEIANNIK
Text: Supplementary Figure 8. Deep hyperpolarization antagonized me nthol activation of TRPM8 but not capsaicin activation of TRPV1. ( a) Representative whole-cell patch- clamp recording of menthol activation of TRPM8 in response to a voltage ramp. In the hyperpolarized voltage range, TRPM8 current increased first and then decreased […]
mM menthol. (b) Representative whole- cell patch- clamp recording of capsaicin activation of TRPV1 in response to a voltage ramp. In the hyperpolarized voltage range, TRPV1 current kept increasing linearly with the lowering of membrane potential, which […]
(1 picture or pasted object on this page, not shown here)

ANAP-incorporated TRPM8 [1] = target: T2, ANAP-incorporated TRPM8 (Mus musculus, UniProt Q8R4D5, Q1003X); parameters: Shifts in ANAP emission, Ave: unit: nm; conditions: ANAP incorporation site Q1003; average shift, menthol activated vs resting state
T2 construct: expressed in transfected cells; host or cells: HEK293 cells, co-transfected with the pANAP vector
Experimental: (§1) As fluorescence emission peak of ANAP shifts to a longer wavelength in more hydrophilic environment, we measured the shift in ANAP emission peak to report conformational changes. Fluorescence properties of ANAP may also be affected by other factors such as temperature and pH[31], so we performed our ANAP experiments always at room temperature (22 ± 1°C). To control for changes in solution pH, we added 3 mM HEPES in ANAP imaging solution to buffer the pH at 7.2. We genetically integrated ANAP into a specific site on TRPM8 with special tRNA and synthetase encoded by pANAP vector (Fig. 5d).
(§2) L-ANAP methyl ester was purchased from AsisChem. pANAP vector was purchased from Addgene. ANAP was incorporated into TRPM8 by introducing a TAG amber stop codon mutation as previously reported. Briefly, after co-transfection of both TRPM8 and pANAP vectors, ANAP was directly added to the culture medium to the final concentration of 20 µM. After 1–2 days, ANAP-containing culture medium was completely changed. Cells were further cultured in ANAP-free medium overnight before experiments.
(§3) ANAP fluorescence was excited by the Ar laser with a 375/28 excitation filter, a T400lp dichroic mirror, and a 435LP emission filter on an inverted fluorescence microscope (Nikon TE2000-U) using a ×40 oil-immersion objective (NA 1.3). Emission spectrum of ANAP was imaged with an Acton SpectraPro 2150i spectrograph in conjunction with an optiMOS CCD camera (Qimaging, USA). We determined the ANAP emission peak value by fitting the emission spectrum with a skewed Gauss distribution in Igor Pro version 6.1 (WaveMatrix), and then the difference in emission peak values measured in the absence and presence of menthol was reported as the shift of ANAP emission.

ANAP-incorporated TRPM8 [2] = target: T3, ANAP-incorporated TRPM8 (Mus musculus, UniProt Q8R4D5, F872X); parameters: Shifts in ANAP emission, Ave: unit: nm; conditions: ANAP incorporation site F872
T3 construct: expressed in transfected cells; host or cells: HEK293 cells, co-transfected with the pANAP vector
Experimental: as §1, §2, §3

ANAP-incorporated TRPM8 [3] = target: T4, ANAP-incorporated TRPM8 (Mus musculus, UniProt Q8R4D5, A875X); parameters: Shifts in ANAP emission, Ave: unit: nm
T4 construct: expressed in transfected cells; host or cells: HEK293 cells, co-transfected with the pANAP vector
Experimental: as §1, §2, §3

ANAP-incorporated TRPM8 [4] = target: T5, ANAP-incorporated TRPM8 (Mus musculus, UniProt Q8R4D5, S824X); parameters: Shifts in ANAP emission, Ave: unit: nm
T5 construct: expressed in transfected cells; host or cells: HEK293 cells, co-transfected with the pANAP vector
Experimental: as §1, §2, §3

ANAP-incorporated TRPM8 [5] = target: T6, ANAP-incorporated TRPM8 (Mus musculus, UniProt Q8R4D5, V876X); parameters: Shifts in ANAP emission, Ave: unit: nm; conditions: ANAP incorporation site V876
T6 construct: expressed in transfected cells; host or cells: HEK293 cells, co-transfected with the pANAP vector
Experimental: as §1, §2, §3

ANAP-incorporated TRPM8 [6] = target: T7, ANAP-incorporated TRPM8 (Mus musculus, UniProt Q8R4D5, W954X); parameters: Shifts in ANAP emission, Ave: unit: nm; conditions: ANAP incorporation site W954, menthol activated vs resting state
T7 construct: expressed in transfected cells; host or cells: HEK293 cells, co-transfected with the pANAP vector
Experimental: as §1, §2, §3

ANAP-incorporated TRPM8 [7] = target: T8, ANAP-incorporated TRPM8 (Mus musculus, UniProt Q8R4D5, Q894X); parameters: Shifts in ANAP emission, Ave: unit: nm; conditions: ANAP incorporation site Q894
T8 construct: expressed in transfected cells; host or cells: HEK293 cells, co-transfected with the pANAP vector
Experimental: as §1, §2, §3

ANAP-incorporated TRPM8 [8] = target: T9, ANAP-incorporated TRPM8 (Mus musculus, UniProt Q8R4D5, S966X); parameters: Shifts in ANAP emission, Ave: unit: nm; conditions: ANAP at S966
T9 construct: expressed in transfected cells; host or cells: HEK293 cells, co-transfected with the pANAP vector
Experimental: as §1, §2, §3

ANAP-incorporated TRPM8 [9] = target: T10, ANAP-incorporated TRPM8 (Mus musculus, UniProt Q8R4D5, I865X); parameters: Shifts in ANAP emission, Ave: unit: nm; conditions: ANAP incorporation site I865
T10 construct: expressed in transfected cells; host or cells: HEK293 cells, co-transfected with the pANAP vector
Experimental: as §1, §2, §3

ANAP-incorporated TRPM8 [10] = target: T11, ANAP-incorporated TRPM8 (Mus musculus, UniProt Q8R4D5, Y924X); parameters: Shifts in ANAP emission, Ave: unit: nm; conditions: ANAP incorporation site Y924
T11 construct: expressed in transfected cells; host or cells: HEK293 cells, co-transfected with the pANAP vector
Experimental: as §1, §2, §3

ANAP-incorporated TRPM8 [11] = target: T12, ANAP-incorporated TRPM8 (Mus musculus, UniProt Q8R4D5, C1006X); parameters: Shifts in ANAP emission, Ave: unit: nm; conditions: ANAP incorporation site C1006; average shift, menthol activated vs resting state
T12 construct: expressed in transfected cells; host or cells: HEK293 cells, co-transfected with the pANAP vector
Experimental: as §1, §2, §3

ANAP-incorporated TRPM8 [12] = target: T13, ANAP-incorporated TRPM8 (Mus musculus, UniProt Q8R4D5, Y808X); parameters: Shifts in ANAP emission, Ave: unit: nm; conditions: ANAP incorporation site Y808; average shift, menthol activated vs resting state
T13 construct: expressed in transfected cells; host or cells: HEK293 cells, co-transfected with the pANAP vector
Experimental: as §1, §2, §3

ANAP-incorporated TRPM8 [13] = target: T14, ANAP-incorporated TRPM8 (Mus musculus, UniProt Q8R4D5, L943X); parameters: Shifts in ANAP emission, Ave: unit: nm; conditions: ANAP incorporation site L943
T14 construct: expressed in transfected cells; host or cells: HEK293 cells, co-transfected with the pANAP vector
Experimental: as §1, §2, §3

[14] = average shift, menthol activated vs resting state

## CC(C)[C@@H]1CC[C@@H](C)C[C@H]1O [menthol, (−)-menthol]
TRPM8
  effect of deep hyperpolarization on ligand-activated channel: decreased towards zero; also recorded: closed the channel
ANAP-incorporated TRPM8 [1]
  Shifts_ave: 1.02 nm
ANAP-incorporated TRPM8 [2]; [14]
  Shifts_ave: 0.53 nm
ANAP-incorporated TRPM8 [2]; single measurement
  Emission Peak at menthol activated state: 477.57 nm and 487.64 nm and 475.42 nm and 485.75 nm and 480.39 nm
ANAP-incorporated TRPM8 [3]; ANAP at A875
  Shifts in ANAP emission, Ave: 6.61
ANAP-incorporated TRPM8 [3]; ANAP at A875 site, redshifted, menthol-induced (0.5 mM), n = 5
  shift of ANAP emission peak: 6.6 ± 0.4 nm
ANAP-incorporated TRPM8 [3]; ANAP incorporation site A875, average shift, menthol activated vs resting state
  Shifts_ave: 6.61 nm
ANAP-incorporated TRPM8 [3]; ANAP incorporation site A875, menthol activated vs resting state, single measurement
  Shifts in emission: 6.25 nm and 6.04 nm and 7.45 nm and 7.64 nm and 5.66 nm
ANAP-incorporated TRPM8 [3]; ANAP incorporation site A875, single measurement
  Emission Peak at menthol activated state: 495.85 nm and 493.43 nm and 494.62 nm and 492.72 nm and 492.66 nm
ANAP-incorporated TRPM8 [4]; ANAP at S824
  Shifts in ANAP emission, Ave: 2.89
ANAP-incorporated TRPM8 [4]; ANAP incorporation site S824, average shift, menthol activated vs resting state
  Shifts_ave: 2.90 nm
ANAP-incorporated TRPM8 [4]; ANAP incorporation site S824, single measurement
  Emission Peak at menthol activated state: 488.12 nm and 482.56 nm and 490.74 nm
ANAP-incorporated TRPM8 [5]; [14]
  Shifts_ave: 0.71 nm
ANAP-incorporated TRPM8 [5]; single measurement
  Emission Peak at menthol activated state: 481.62 nm and 479.21 nm and 478.64 nm and 484.51 nm and 491.43 nm
ANAP-incorporated TRPM8 [6]; average shift
  Shifts_ave: 1.45 nm
ANAP-incorporated TRPM8 [6]; single measurement
  Shifts in emission: 1.59 nm and 1.14 nm and 1.76 nm and 1.68 nm and 1.08 nm
ANAP-incorporated TRPM8 [7]; [14]
  Shifts_ave: 1.82 nm
ANAP-incorporated TRPM8 [7]; single measurement
  Emission Peak at menthol activated state: 487.18 nm and 484.04 nm and 488.11 nm and 490.92 nm and 483.4 nm
ANAP-incorporated TRPM8 [8]
  Shifts in ANAP emission, Ave: 2.10
ANAP-incorporated TRPM8 [9]; [14]
  Shifts_ave: 0.00167 nm
ANAP-incorporated TRPM8 [9]; single measurement
  Emission Peak at menthol activated state: 471.49 nm and 482.04 nm and 478.09 nm and 488.42 nm and 478.8 nm and 481.12 nm
ANAP-incorporated TRPM8 [10]; [14]
  Shifts_ave: -0.72 nm
ANAP-incorporated TRPM8 [10]; single measurement
  Emission Peak at menthol activated state: 483.26 nm and 481.78 nm and 474.51 nm and 486.54 nm
ANAP-incorporated TRPM8 [11]
  Shifts_ave: 1.09 nm
ANAP-incorporated TRPM8 [12]
  Shifts_ave: 1.79 nm
ANAP-incorporated TRPM8 [13]; [14]
  Shifts_ave: -0.71 nm
ANAP-incorporated TRPM8 [13]; single measurement
  Emission Peak at menthol activated state: 476.85 nm and 475.15 nm and 483.93 nm and 482.35 nm and 475.81 nm and 479.5 nm
